# Biological target: T1, ADAMTS-1 (Homo sapiens, UniProt Q9UHI8)
# T1 construct: made in house
# T1 sequence (Q9UHI8 253-967): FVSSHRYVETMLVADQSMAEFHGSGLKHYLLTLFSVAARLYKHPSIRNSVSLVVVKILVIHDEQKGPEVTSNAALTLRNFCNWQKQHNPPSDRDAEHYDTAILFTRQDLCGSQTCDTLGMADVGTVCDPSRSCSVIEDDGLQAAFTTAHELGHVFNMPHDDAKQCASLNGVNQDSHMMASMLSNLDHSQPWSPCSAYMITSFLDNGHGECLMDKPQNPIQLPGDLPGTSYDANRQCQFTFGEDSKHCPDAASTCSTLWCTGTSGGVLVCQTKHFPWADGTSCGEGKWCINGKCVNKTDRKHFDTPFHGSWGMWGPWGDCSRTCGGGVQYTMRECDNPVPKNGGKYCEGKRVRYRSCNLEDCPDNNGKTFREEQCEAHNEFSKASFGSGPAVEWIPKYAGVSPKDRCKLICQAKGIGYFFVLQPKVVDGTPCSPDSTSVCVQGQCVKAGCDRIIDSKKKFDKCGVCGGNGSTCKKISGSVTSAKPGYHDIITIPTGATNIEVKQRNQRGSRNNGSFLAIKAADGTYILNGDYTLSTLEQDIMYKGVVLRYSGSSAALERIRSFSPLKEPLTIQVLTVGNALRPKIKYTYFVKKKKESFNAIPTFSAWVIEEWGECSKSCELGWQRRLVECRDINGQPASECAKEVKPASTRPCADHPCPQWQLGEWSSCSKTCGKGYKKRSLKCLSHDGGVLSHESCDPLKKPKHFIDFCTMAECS
# Assay: Cleavage of ATS7FP7 by ADAMTS-1
# Type: biochemical
# Settings: ADAMTS-1 10 nM, ATS7FP7 40 μM
# Protocol: All enzyme assays were conducted in TNC-B buffer (50 mM Tris- HCl, pH 7.5, 150 mM NaCl, 10 mM CaCl2, and 0.02% NaN3) at 37 °C in 384 well plates (Cat. No: 784900, Greiner Bio-One, Austria). To avoid the formation of inhibitor or peptide aggregates, the detergent Brij-35 (0.05%) was added to TNC-B[13]. For inhibition studies, stock solutions of chemical compounds were prepared in dimethyl sulfoxide (DMSO) (10 mM). These were further diluted at different concentrations in TNC-B and incubated with ADAMTS-1, ADAMTS-4, ADAMTS-5, ADAMTS-7 or ADAMTS-8 (10 nM) for 1 h at 37 °C. Blank samples were prepared using buffer only and the rate of cleavage for blank reactions was subtracted from the rates measured in the presence of enzyme. Upon addition of the indicated ADAMTS-7 FRET substrates (40 µM), the fluorescence was measured immediately using a FLUOstar Omega microplate reader (BMG Labtech, Germany) with an excitation filter wavelength of 485 nm and an emission filter wavelength of 520 nm.
# Supplementary Figure 6: Cleavage of ATS7FP7 by members of the ADAMTS family. A) ATS7FP7 (40 μM) was incubated either with ADAMTS-1, -4, -5, -7, or -8 (10 nM). Fluorescence was detected (λex = 485 nm, λem = 520 nm) for 8 h at 37°C and reported as relative fluorescence units (RFU). The data are presented as average ± SEM (n=3) and were fitted with a linear regression. […]
substance,measurement,value
Glu-Ala-Ala-Ala-Arg↓Ala-Glu↓Ala-Ala-Ala-Lys [ATS7FP7],cleavage by ADAMTS-1,neither ADAMTS-1 nor ADAMTS-8 were able to cleave ATS7FP7
